This note sets out measurements from ChEMBL document CHEMBL1671638, “Cloning, expression, and characterization of Babesia gibsoni dihydrofolate reductase-thymidylate synthase: inhibitory effect of antifolates on its catalytic activity and parasite proliferation” (Antimicrob Agents Chemother, 2008).

Activity calls are given as the source filed them. The calls are words filed in the database; no cut-off is given here.

As a reminder, the IC50 is the concentration that gives 50% inhibition. A high value points to weaker potency in that assay.

A short description of assay [1]: (§1) Inhibition of Babesia gibsoni Dihydrofolate reductase-thymidylate synthase expressed in Escherichia coli BL21.
In assay [2] the test system is Babesia gibsoni. Described as §1.
The test system of assay [3] is Babesia gibsoni. The experiment in a line: Antiparasitic activity against Babesia gibsoni infected in dog erythrocytes assessed as growth inhibition at 50 nM by Giemsa staining based microscopy. The format is functional, organism-based.
The test system of assay [4] is Babesia gibsoni. Kind of assay: Antiparasitic activity against Babesia gibsoni infected in dog erythrocytes assessed as growth inhibition at 150 nM by Giemsa staining based microscopy. The assay is classed as functional, organism-based.
The subject of assay [5] is Babesia gibsoni. The experiment in a line: Antiparasitic activity against Babesia gibsoni infected in dog erythrocytes assessed as growth inhibition at 20 uM by Giemsa staining based microscopy. The format is functional, organism-based.
In assay [6] the test system is Babesia gibsoni. Kind of assay: Antiparasitic activity against Babesia gibsoni infected in dog erythrocytes assessed as growth inhibition at 80 uM by Giemsa staining based microscopy. The format is functional, organism-based.

Turning to `CN(Cc1cnc2nc(N)nc(N)c2n1)c1ccc(C(=O)N[C@@H](CCC(=O)O)C(=O)O)cc1` [METHOTREXATE], it took 68.6 nM to reach half-maximal inhibition in assay [1] (IC50). Also, in the assay on Babesia gibsoni [2], the inhibition result is “Dose-dependent effect”. Further, the inhibition result in the assay on Babesia gibsoni [3] and with Babesia gibsoni [4] was “Active” each time.

Consider `CCc1nc(N)nc(N)c1-c1ccc(Cl)cc1` [PYRIMETHAMINE], for which the IC50 in assay [1] stood at 50 nM. Further, the inhibition entry in the assay on Babesia gibsoni [2] was “Dose-dependent effect”. Moreover, the outcome in the assay on Babesia gibsoni [5] and in the assay on Babesia gibsoni [6] was Active.

Compound `COc1cc(Cc2cnc(N)nc2N)cc(OC)c1OC` [TRIMETHOPRIM] came in with an IC50 in assay [1] of 55 nM. Besides, the inhibition entry in the assay on Babesia gibsoni [2] was “Dose-dependent effect”. Also, the result with Babesia gibsoni [5] and in the assay on Babesia gibsoni [6] was Active.
